The results in this text go back to US20250163038A1, “CBL-B MODULATORS AND USES THEREOF” (Nimbus Clio, Inc., priority 2021, published 2025).

Assay [1] has as its target T1, Recombinant human c-Cbl (aa 47-435) (Homo sapiens, UniProt P22681).
T1 sequence (P22681 47-435): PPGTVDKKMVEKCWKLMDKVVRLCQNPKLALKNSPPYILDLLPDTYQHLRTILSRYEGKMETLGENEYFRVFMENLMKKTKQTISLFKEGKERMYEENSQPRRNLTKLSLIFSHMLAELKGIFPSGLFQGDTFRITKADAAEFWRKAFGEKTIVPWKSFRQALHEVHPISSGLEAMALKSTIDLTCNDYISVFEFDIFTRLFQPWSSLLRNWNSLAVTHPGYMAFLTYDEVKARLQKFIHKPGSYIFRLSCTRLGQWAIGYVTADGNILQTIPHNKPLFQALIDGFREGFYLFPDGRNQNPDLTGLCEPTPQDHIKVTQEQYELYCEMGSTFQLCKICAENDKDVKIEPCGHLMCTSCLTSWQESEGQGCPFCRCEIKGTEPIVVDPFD
Nature of the assay: c-Cbl Biochemical Assay (TR-FRET). The conditions noted are these: hc-Cbl Biochemical Assay (TR-FRET); read-out: TR-FRET hcCbl IC50.

The subject of assay [2] is Jurkat (clone E6-1) cells with NFAT luciferase reporter. Briefly: Jurkat reporter assay (NFAT Luciferase). In kind it is cell-based. The settings on record: Homo sapiens; Jurkat NFAT luciferase reporter cells, anti-CD3 stimulation, 6 hr; read-out: Jurkat NFAT EC50.
Assay [3] has as its target Recombinant human Cbl-b (aa 36-427) (Homo sapiens, UniProt Q13191). Briefly: Cbl-b Biochemical Assay (TR-FRET). The conditions noted are these: read-out: TR-FRET hCbl-b IC50. (TR-FRET usually uses a lanthanide donor and a delayed reading to cut background.)

Structures are written as SMILES.

Recombinant human Cbl-b (aa 36-427), sequence (Q13191 36-427): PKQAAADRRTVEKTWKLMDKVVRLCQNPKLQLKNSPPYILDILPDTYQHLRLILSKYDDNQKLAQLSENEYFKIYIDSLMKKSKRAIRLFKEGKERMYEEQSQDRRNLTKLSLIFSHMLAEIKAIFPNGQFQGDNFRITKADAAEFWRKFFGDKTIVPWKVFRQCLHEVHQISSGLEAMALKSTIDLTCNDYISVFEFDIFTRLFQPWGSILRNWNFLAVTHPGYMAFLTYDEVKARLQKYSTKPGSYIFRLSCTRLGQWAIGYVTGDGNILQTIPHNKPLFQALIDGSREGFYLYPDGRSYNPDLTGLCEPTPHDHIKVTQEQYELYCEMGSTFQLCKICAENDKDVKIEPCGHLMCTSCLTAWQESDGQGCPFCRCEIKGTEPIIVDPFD

Regarding `Cn1cnnc1-c1cc(F)ccc1-c1cc(-c2nc3cc(CO)cc(C(F)(F)F)c3[nH]2)nc(C2CC2)c1` [ADU-2, (2-{6-Cyclopropyl-4-[4-fluoro-2-(4-methyl-1,2,4-triazol-3-yl)phenyl]pyridin-2-yl}-7-(trifluoromethyl)-1H-1,3-benzodiazol-5-yl)methanol], the half-inhibitory concentration (IC50) in assay [1] and in assay [3] was less than 200 nM each time. In addition, in assay [2], the EC50 (usually the concentration that produces a half-maximal response) fell in the range of 200 to 1000 nM.
Take `Cn1cnnc1-c1cc(F)ccc1-c1cc(-c2nc3cc(CN[C@@H]4CCC[C@@H]4O)cc(C(F)(F)F)c3[nH]2)nc(C2CC2)c1` [ADV-2, (1S,2R)-2-{[(2-{6-Cyclopropyl-4-[4-fluoro-2-(4-methyl-1,2,4-triazol-3-yl)phenyl]pyridin-2-yl}-7-(trifluoromethyl)-1H-1,3-benzodiazol-5-yl)methyl]amino}cyclopentan-1-ol]: the IC50 in assay [1] and in assay [3] was less than 200 nM throughout. Further, the EC50 in assay [2] is less than 200 nM.
Turning to `COCCNCc1cc(C(F)(F)F)c2[nH]c(-c3cc(-c4ccc(F)cc4-c4nncn4C)cc(C4CC4)n3)nc2c1` [ADW-1, [(2-{6-Cyclopropyl-4-[4-fluoro-2-(4-methyl-1,2,4-triazol-3-yl)phenyl]pyridin-2-yl}-7-(trifluoromethyl)-1H-1,3-benzodiazol-5-yl)methyl](2-methoxyethyl)amine], the IC50 in assay [1] and in assay [3] was less than 200 nM in each case. Also, the EC50 in assay [2] is less than 200 nM.
For `Cn1cnnc1-c1cc(F)ccc1-c1cc(Cl)nc(-c2nc3cc(CN[C@@H]4CCC[C@@H]4O)cc(C(F)(F)F)c3[nH]2)c1` [ADY-2, (1S,2R)-2-{[(2-{6-Chloro-4-[4-fluoro-2-(4-methyl-1,2,4-triazol-3-yl)phenyl]pyridin-2-yl}-7-(trifluoromethyl)-1H-1,3-benzodiazol-5-yl)methyl]amino}cyclopentan-1-ol], the IC50 in assay [1] and in assay [3] was less than 200 nM each time. Further, the EC50 in assay [2] was less than 200 nM.
Take `Cn1cnnc1[C@]1(c2cccc(-c3nc4cc(CNCC5CCC5)cc(C(F)(F)F)c4o3)c2)C[C@H](C)C1` [ADZ-1, (Cyclobutylmethyl)[(2-{3-[(1r,3s)-3-methyl-1-(4-methyl-1,2,4-triazol-3-yl)cyclobutyl]phenyl}-7-(trifluoromethyl)-1,3-benzoxazol-5-yl)methyl]amine]: the IC50 in assay [1] and in assay [3] was less than 200 nM in each case. For the same compound, the concentration for a half-maximal effect (EC50) in assay [2] is 200 to 1000 nM.
`Cn1cnnc1-c1cc(F)ccc1-c1cccc(-c2nc3cc(CNCC(C)(C)O)cc(C(F)(F)F)c3o2)c1` [AE-2, 1-(((2-(4′-Fluoro-2′-(4-methyl-4H-1,2,4-triazol-3-yl)-[1,1′-biphenyl]-3-yl)-7-(trifluoromethyl)benzo[d]oxazol-5-yl)methyl)amino)-2-methylpropan-2-ol]: the IC50 (commonly the concentration that gives 50% inhibition) in assay [1] was 1000 to 10000 nM; in assay [3] it was less than 200 nM. Moreover, the EC50 in assay [2] fell in the range of 200 to 1000 nM.
As for `COc1cc(CN[C@@H]2CCC[C@@H]2O)cc2nc(-c3cccc([C@]4(c5nncn5C)C[C@@H](C)C4)c3)oc12` [AEC-2], the IC50 in assay [1] and in assay [3] was less than 200 nM throughout. Besides, the EC50 in assay [2] is 200 to 1000 nM.
On to `Cn1cnnc1-c1cc(F)ccc1-c1cc(-c2nc3cc(CN[C@@H]4CCC[C@@H]4O)ccc3[nH]2)nc(C2CC2)c1` [AEF-2, (1S,2R)-2-(((2-(6-Cyclopropyl-4-(4-fluoro-2-(4-methyl-4H-1,2,4-triazol-3-yl)phenyl)pyridin-2-yl)-1H-benzo[d]imidazol-5-yl)methyl)amino)cyclopentan-1-ol], for which the IC50 in assay [1] and in assay [3] was less than 200 nM in each case. For the same compound, in assay [2], the EC50 fell in the range of 200 to 1000 nM.
With `Cn1cnnc1-c1cc(F)ccc1-c1ccnc(-c2nc3cc(CN[C@@H]4CCC[C@@H]4O)cc(C(F)(F)F)c3o2)c1` [AEG-8, (1S,2R)-2-{[(2-{4-[4-Fluoro-2-(4-methyl-1,2,4-triazol-3-yl)phenyl]pyridin-2-yl}-7-(trifluoromethyl)-1,3-benzoxazol-5-yl)methyl]amino}cyclopentan-1-ol], the IC50 in assay [1] and in assay [3] was less than 200 nM each time. Further, the EC50 in assay [2] was less than 200 nM.
In the case of `Cn1cnnc1-c1cc(F)ccc1-c1cc(-c2nc3cc(CN[C@@H]4CCC[C@@H]4O)ccc3o2)nc(C2CC2)c1` [AEH-2, (1S,2R)-2-{[(2-{6-Cyclopropyl-4-[4-fluoro-2-(4-methyl-1,2,4-triazol-3-yl)phenyl]pyridin-2-yl}-1,3-benzoxazol-5-yl)methyl]amino}cyclopentan-1-ol], the IC50 in assay [1] and in assay [3] was less than 200 nM each time. For the same compound, the EC50 in assay [2] was less than 200 nM.
Regarding `Cn1cnnc1-c1cc(F)ccc1-c1cc(-c2nc3cc(CNCC4CC4)ccc3o2)nc(C2CC2)c1` [AEI-1, [(2-{6-Cyclopropyl-4-[4-fluoro-2-(4-methyl-1,2,4-triazol-3-yl)phenyl]pyridin-2-yl}-1,3-benzoxazol-5-yl)methyl](cyclopropylmethyl)amine], the IC50 in assay [1] and in assay [3] was less than 200 nM in each case. Besides, the EC50 in assay [2] was in the range of 200 to 1000 nM.
As to `CCNc1cc(-c2ccc(F)cc2-c2nncn2C)cc(-c2nc3cc(C(=O)OC)cc(C(F)(F)F)c3o2)n1` [AEK-2, Methyl 2-[6-(ethylamino)-4-[4-fluoro-2-(4-methyl-1,2,4-triazol-3-yl)-phenyl]-pyridin-2-yl]-7-(trifluoromethyl)-1,3-benzoxazole-5-carboxylate], the IC50 in assay [1] and in assay [3] was 1000 to 10000 nM each time. Besides, the EC50 in assay [2] was in the range of 1000 to 10000 nM.
On to `CCNc1cc(-c2ccc(F)cc2-c2nncn2C)cc(-c2nc3cc(CO)cc(C(F)(F)F)c3o2)n1` [AEL-1, {2-[6-(Ethylamino)-4-[4-fluoro-2-(4-methyl-1,2,4-triazol-3-yl)-phenyl]-pyridin-2-yl]-7-(trifluoromethyl)-1,3-benzoxazol-5-yl}-methanol], for which the IC50 in assay [1] and in assay [3] was 200 to 1000 nM each time. In addition, the EC50 in assay [2] was 10000 to 50000 nM.
With `COCCNCc1ccc2oc(-c3cc(-c4ccc(Cl)cc4-c4nncn4C)cc(C4CC4)n3)nc2c1` [AEM-1], the IC50 in assay [1] and in assay [3] was less than 200 nM throughout. The EC50 in assay [2] was less than 200 nM.
For `COCCNCc1ccc2oc(-c3cc(-c4ccc(C#N)cc4-c4nncn4C)cc(C4CC4)n3)nc2c1` [AEN-15, 4-[2-Cyclopropyl-6-(5-{1[(2-methoxyethyl)amino]methyl}-1,3-benzoxazol-2-yl)pyridin-4-yl]-3-(4-methyl-1,2,4-triazol-3-yl)benzonitrile], the IC50 in assay [1] is 200 to 1000 nM; in assay [3], less than 200 nM. The EC50 in assay [2] is 200 to 1000 nM.
Consider `Cn1cnnc1-c1cc(C#N)ccc1-c1cc(-c2nc3cc(CNCC4CCC4)ccc3o2)nc(C2CC2)c1` [AEO-1, 4-[2-(5-{[(Cyclobutylmethyl)amino]methyl}-1,3-benzoxazol-2-yl)-6-cyclopropylpyridin-4-yl]-3-(4-methyl-1,2,4-triazol-3-yl)benzonitrile], for which the IC50 in assay [1] and in assay [3] was less than 200 nM each time. The EC50 in assay [2] is less than 200 nM.
For `Cn1cnnc1-c1cc(F)ccc1-c1cc(-c2nc3cc(CO)ccc3o2)cc(C2CC2)c1` [AEP-2, {2-[5-cyclopropyl-4′-fluoro-2′-(4-methyl-1,2,4-triazol-3-yl)-[1,1′-biphenyl]-3-yl]-1,3-benzoxazol-5-yl}methanol], the IC50 in assay [1] and in assay [3] was 200 to 1000 nM throughout. In addition, in assay [2], the EC50 fell in the range of 1000 to 10000 nM.
For the compound `Cn1cnnc1-c1cc(F)ccc1-c1cc(-c2nc3cc(CN[C@@H]4CCC[C@@H]4O)ccc3o2)cc(C2CC2)c1` [AEQ-2, (1S,2R)-2-[({2-[5-Cyclopropyl-4′-fluoro-2′-(4-methyl-1,2,4-triazol-3-yl)-[1,1′-biphenyl]-3-yl]-1,3-benzoxazol-5-yl}methyl)amino]cyclopentan-1-ol], the IC50 in assay [1] and in assay [3] was less than 200 nM each time. In addition, the EC50 in assay [2] is less than 200 nM.
Turning to `Cn1cnnc1-c1cc(Cl)ccc1-c1ccnc(-c2nc3cc(CN[C@@H]4CCC[C@@H]4O)cc(C(F)(F)F)c3o2)c1` [AER-8, (1S,2R)-2-(((2-(4-(4-Chloro-2-(4-methyl-4H-1,2,4-triazol-3-yl)phenyl)pyridin-2-yl)-7-(trifluoromethyl)benzo[d]oxazol-5-yl)methyl)amino)cyclopentan-1-ol], the half-inhibitory concentration (IC50) in assay [1] and in assay [3] was less than 200 nM each time. Besides, in assay [2], the EC50 was less than 200 nM.
Consider `Cc1cc(CO)cc2nc(-c3cc(-c4ccc(F)cc4-c4nncn4C)cc(C4CC4)n3)oc12` [AET-1, (2-{6-Cyclopropyl-4-[4-fluoro-2-(4-methyl-1,2,4-triazol-3-yl)phenyl]pyridin-2-yl}-7-methyl-1,3-benzoxazol-5-yl)methanol], for which the half-maximal inhibitory concentration (IC50) in assay [1] lay within 1000 to 10000 nM; in assay [3] it was 200 to 1000 nM. Also, the EC50 in assay [2] lay within 1000 to 10000 nM.
On to `Cc1cc(CN[C@@H]2CCC[C@@H]2O)cc2nc(-c3cc(-c4ccc(F)cc4-c4nncn4C)cc(C4CC4)n3)oc12` [AEU-2, (1S,2R)-2-{[(2-{6-Cyclopropyl-4-[4-fluoro-2-(4-methyl-1,2,4-triazol-3-yl)phenyl]pyridin-2-yl}-7-methyl-1,3-benzoxazol-5-yl)methyl]amino}cyclopentan-1-ol], for which the IC50 in assay [1] and in assay [3] was less than 200 nM each time. In assay [2], the EC50 is less than 200 nM.
